Assay results from PubChem BioAssay (NCI).
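A five-concentration, 48-hour dose response in 96-well plates underlies each endpoint, interpolated linearly between surrounding concentrations. GI50 = concentration required for 50% inhibition of growth. TGI: total growth inhibition.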

Tests used:
Assay in all cases: NCI tumour cell line growth inhibition, 48 h
[1] = system: 786-0 renal
[2] = system: A498 renal
[3] = system: A549 NSCLC
[4] = system: ACHN renal
[5] = system: BT-549 breast
[6] = system: CAKI-1 renal
[7] = system: CCRF-CEM leukemia
[8] = system: COLO 205 colon
[9] = system: DU-145 prostate
[10] = system: EKVX NSCLC
[11] = system: HCC-2998 colon
[12] = system: HCT-116 colon
[13] = system: HCT-15 colon
[14] = system: HL-60(TB) leukemia
[15] = system: HOP-62 NSCLC
[16] = system: HOP-92 NSCLC
[17] = system: HS 578T breast
[18] = system: HT29 colon
[19] = system: IGROV1 ovarian
[20] = system: K-562 leukemia
[21] = system: KM12 colon
[22] = system: LOX IMVI melanoma
[23] = system: M14 melanoma
[24] = system: MALME-3M melanoma
[25] = system: MCF7 breast
[26] = system: MDA-MB-231 breast
[27] = system: MDA-MB-435
[28] = system: MOLT-4 leukemia
[29] = system: NCI-H226 lung
[30] = system: NCI-H23 lung
[31] = system: NCI-H460 lung
[32] = system: NCI-H522 lung
[33] = system: NCI/ADR-RES ovarian
[34] = system: OVCAR-3 ovarian
[35] = system: OVCAR-4 ovarian
[36] = system: OVCAR-5 ovarian
[37] = system: OVCAR-8 ovarian
[38] = system: PC-3 prostate
[39] = system: RPMI-8226 leukemia
[40] = system: RXF 393 renal
[41] = system: SF-268 CNS
[42] = system: SF-295 CNS
[43] = system: SF-539 CNS
[44] = system: SK-MEL-2 melanoma
[45] = system: SK-MEL-28 melanoma
[46] = system: SK-MEL-5 melanoma
[47] = system: SK-OV-3 ovarian
[48] = system: SN12C renal
[49] = system: SNB-19 CNS
[50] = system: SNB-75 CNS
[51] = system: SR leukemia
[52] = system: SW-620 colon
[53] = system: T-47D breast
[54] = system: TK-10 renal
[55] = system: U251 CNS
[56] = system: UACC-257 melanoma
[57] = system: UACC-62 melanoma
[58] = system: UO-31 renal

For `COC(=O)C1=CN(CC2=CC(=O)C(C)=CC2=O)C=C(C(=O)OC)C1c1cccc(OC)c1OC`, the GI50 [1] was 7.56 µM, the TGI [1] was 25.3 µM and the GI50 [2] was 20.8 µM. The TGI [2] was 55.2 µM, the GI50 [3] was 13 µM and the TGI [3] was > 51.5 µM. For the same molecule, the GI50 [4] was 6.69 µM, the TGI [4] was 22.2 µM and the GI50 [5] was 34.3 µM. The TGI [5] was > 100 µM, the GI50 [6] was 10.9 µM and the TGI [6] was 29.7 µM. It also gave a GI50 [7] of 12.5 µM, a TGI [7] of 77.9 µM and a GI50 [8] of 9.81 µM. For the same molecule, the TGI [8] was > 32.6 µM, the GI50 [9] was 17.4 µM and the TGI [9] was 33.1 µM. For the same molecule, the GI50 [10] was 35.6 µM, the TGI [10] was > 100 µM and the GI50 [11] was 14.2 µM. It also gave a TGI [11] of 27.2 µM, a GI50 [12] of 18.5 µM and a TGI [12] of 36.7 µM. It also gave a GI50 [13] of 18.4 µM, a TGI [13] of 36.9 µM and a GI50 [14] of 5.07 µM. The TGI [14] was 14.1 µM, the GI50 [15] was 15.8 µM and the TGI [15] was > 48.1 µM. For the same molecule, the GI50 [16] was 2680 nM, the TGI [16] was 17.1 µM and the GI50 [17] was 27.1 µM. For the same molecule, the TGI [17] was > 87.3 µM, the GI50 [18] was 41.1 µM and the TGI [18] was > 100 µM. It also gave a GI50 [19] of 17.4 µM, a TGI [19] of 47.3 µM and a GI50 [20] of 3.62 µM. For the same molecule, the TGI [20] was 26 µM, the GI50 [21] was 18 µM and the TGI [21] was 57.2 µM. For the same molecule, the GI50 [22] was 20 µM, the TGI [22] was 45.2 µM and the GI50 [23] was 15.3 µM. It also gave a TGI [23] of 29.4 µM, a GI50 [24] of 13.5 µM and a TGI [24] of 34.3 µM. For the same molecule, the GI50 [25] was 18.6 µM, the TGI [25] was 55.2 µM and the GI50 [26] was 11.8 µM. It also gave a TGI [26] of 28.9 µM, a GI50 [27] of 15.8 µM and a TGI [27] of 39.3 µM. For the same molecule, the GI50 [28] was 3.28 µM, the TGI [28] was 9.68 µM and the GI50 [29] was 15.6 µM. The TGI [29] was 40.5 µM, the GI50 [30] was 22.4 µM and the TGI [30] was > 55.1 µM. The GI50 [31] was 19.7 µM, the TGI [31] was > 70.7 µM and the GI50 [32] was 17 µM. It also gave a TGI [32] of 45.2 µM, a GI50 [33] of 18.3 µM and a TGI [33] of 38.3 µM. It also gave a GI50 [34] of 8.19 µM, a TGI [34] of 24 µM and a GI50 [35] of 12 µM. For the same molecule, the TGI [35] was > 60.5 µM, the GI50 [36] was 18.7 µM and the TGI [36] was 36.3 µM. For the same molecule, the GI50 [37] was 16.2 µM, the TGI [37] was 42.8 µM and the GI50 [38] was 15.3 µM. The TGI [38] was 38.6 µM, the GI50 [39] was 3.09 µM and the TGI [39] was 10.9 µM. The GI50 [40] was 11.5 µM, the TGI [40] was 26.9 µM and the GI50 [41] was 18.7 µM. For the same molecule, the TGI [41] was > 68.4 µM, the GI50 [42] was 6.88 µM and the TGI [42] was > 41.8 µM. The GI50 [43] was 17.1 µM, the TGI [43] was 56.2 µM and the GI50 [44] was 19.8 µM. The TGI [44] was 52.1 µM, the GI50 [45] was 31 µM and the TGI [45] was > 57.9 µM. The GI50 [46] was 15.2 µM, the TGI [46] was 32.6 µM and the GI50 [47] was 42.8 µM. The TGI [47] was > 61.5 µM, the GI50 [48] was 13.8 µM and the TGI [48] was 34 µM. The GI50 [49] was > 43.1 µM, the TGI [49] was > 70 µM and the GI50 [50] was > 100 µM. For the same molecule, the TGI [50] was > 100 µM, the GI50 [51] was 1080 nM and the TGI [51] was 13.8 µM. The GI50 [52] was 19.4 µM, the TGI [52] was > 70.6 µM and the GI50 [53] was 46.2 µM. For the same molecule, the TGI [53] was > 94.4 µM, the GI50 [54] was 8.35 µM and the TGI [54] was 27.1 µM. The GI50 [55] was 18.6 µM, the TGI [55] was 50.2 µM and the GI50 [56] was 18.5 µM. The TGI [56] was 43.5 µM, the GI50 [57] was 13 µM and the TGI [57] was 30.4 µM. It also gave a GI50 [58] of 12.9 µM and a TGI [58] of 25.5 µM.
